Each molecule was assayed against Growth hormone secretagogue receptor type 1 (Homo sapiens, UniProt Q92847) (assay: Binding affinity for human growth hormone GH secretagogue (hGHsr) receptor). Conditions: not given.
Chain of Growth hormone secretagogue receptor type 1 (Q92847 whole entry): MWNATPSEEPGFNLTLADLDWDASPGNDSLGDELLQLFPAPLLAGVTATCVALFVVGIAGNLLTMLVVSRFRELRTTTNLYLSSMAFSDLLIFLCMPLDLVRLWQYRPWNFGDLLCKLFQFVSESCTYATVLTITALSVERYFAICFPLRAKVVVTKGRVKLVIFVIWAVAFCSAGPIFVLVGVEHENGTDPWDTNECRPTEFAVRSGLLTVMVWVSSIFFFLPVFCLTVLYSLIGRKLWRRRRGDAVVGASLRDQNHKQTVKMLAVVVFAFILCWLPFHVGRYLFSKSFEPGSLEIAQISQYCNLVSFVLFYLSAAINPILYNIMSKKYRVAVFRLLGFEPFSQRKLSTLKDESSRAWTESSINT

Point of comparison: `COC(=O)C(CCCCN)NC(=O)Cn1c(-c2ccc3ccccc3c2)nc2ccc(Cl)cc2c1=O` (stereo unspecified), IC50 3500 nM. Against it:
- NCCCCCNC(=O)Cn1c(-c2ccc3ccccc3c2)nc2ccc(Br)cc2c1=O — 2.5-fold lower, 1400 nM
- NCCCCCCNC(=O)Cn1c(CCc2ccccc2)nc2ccc(-c3ccccc3)cc2c1=O — 220-fold lower, 16 nM
- NCCCCCNC(=O)Cn1c(CCc2ccccc2)nc2ccc(Br)cc2c1=O — 10-fold lower, 340 nM
- NCCCCCCNC(=O)Cn1c(CCc2ccccc2)nc2ccc(Br)cc2c1=O — 52-fold lower, 67 nM
- NCCCCCCNC(=O)Cn1c(-c2ccc3ccccc3c2)nc2ccc(-c3ccccc3)cc2c1=O — 18-fold lower, 200 nM
- NCCCCCNC(=O)Cn1c(-c2ccc3ccccc3c2)nc2ccc(-c3ccccc3)cc2c1=O — 10-fold lower, 340 nM
- NCCCCCNC(=O)Cn1c(CCc2ccccc2)nc2ccc(-c3ccccc3)cc2c1=O — 73-fold lower, 48 nM
- NCCCCCCNC(=O)Cn1c(-c2ccc3ccccc3c2)nc2ccc(Br)cc2c1=O — 3.6-fold lower, 960 nM
- CN1N=C2CCN(C(=O)[C@@H](COCc3ccccc3)NC(=O)C(C)(C)N)C[C@@]2(Cc2ccccc2)C1=O [CAPROMORELIN] — within 1.5-fold, 3000 nM

Species: Rattus norvegicus
Test: The effective concentration against rat pituitary cell GH release assay
Type: functional
Conditions: Pituitary gland cell

With `NCCCCCCNC(=O)Cn1c(CCc2ccccc2)nc2ccc(-c3ccccc3)cc2c1=O` the IC50 was 630 nM.

Source: ChEMBL document CHEMBL1132855, “Modeling directed design and biological evaluation of quinazolinones as non-peptidic growth hormone secretagogues” (Bioorg Med Chem Lett, 2000)
